The values below come from patent US4636491A, “Renin inhibitory peptides having improved solubility” (Merck & Co., Inc., priority 1984, dated 1987).

The nature of data set [1]: Solubility of the peptides in pH 7.4 buffer and in H2O. Type of data set: physicochemical. On the procedure:
(§1) Following the standard solid phase methodology described above in Example 1, additional inhibitory peptides of the present invention were prepared. The peptides prepared are set out in the following table. Satisfactory amino acid analyses were obtained by Spinco method for each listed peptide. Also included in the table is solubility data of three types from which the improved solubility characteristics of the peptides of the present invention may be judged.

The next data set in a line: Partition coefficient. Type of data set: physicochemical. On the procedure: as §1
The next data set relates to nephrectomized rats. The conditions noted are these: after the injection of hog renin into nephrectomized rats; cited from earlier work.
The target of a further data set is T1, human kidney renin (Homo sapiens, UniProt P00797).
T1 construct: human kidney renin purified as described in Bangham; from tissue; host or cells: human kidney
T1 sequence (P00797 67-406): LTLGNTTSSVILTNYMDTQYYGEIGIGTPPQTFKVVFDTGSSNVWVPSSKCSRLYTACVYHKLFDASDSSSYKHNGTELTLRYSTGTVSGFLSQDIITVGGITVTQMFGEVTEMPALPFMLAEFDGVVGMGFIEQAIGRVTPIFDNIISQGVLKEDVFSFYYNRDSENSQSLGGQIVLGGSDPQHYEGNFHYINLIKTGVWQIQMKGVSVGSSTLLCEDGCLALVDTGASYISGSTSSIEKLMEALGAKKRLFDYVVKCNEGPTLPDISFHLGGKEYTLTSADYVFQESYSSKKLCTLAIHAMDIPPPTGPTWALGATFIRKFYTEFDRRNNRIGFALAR
As to the kind of experiment: Inhibition of purified human kidney renin. Type of data set: biochemical. The conditions noted are these: dissociation constant of the inhibited enzyme-inhibitor complex. On the procedure:
(§2) Assays were carried out in order to determine the inhibitory potency of the peptides of the present invention. […] Another assay measured the inhibition of human kidney renin purified as described in Bangham, D. R., Robertson, I., Robinson, J. I. S., Robinson, C. J., and Tree, M., Clinical Science and Molecular Medicine, 48 (Supp. 2): 136s-159s (1975), and further purified by affinity chromatography on pepstatin-aminohexyl-Sepharase described in Poe, M., Wu., J. K., Florance, J. R., Radkey, J. A., Bennet, C. D., and Hoogsteen, K., J. Biol. Chem. 258:2209-2216 (1983). The assay was also in accordance with Poe et al. cited above. Further assays measured human plasma renin and dog plasma renin in accordance with procedures described in Biger et al, Nature, 303:81-84 (1983).
The results expressed as KI values refer to the dissociation constant of the inhibited enzyme-inhibitor complex. This KI value was obtained as described above.

The target of a further data set is T2, human plasma renin (Homo sapiens, UniProt P00797).
T2 construct: Further assays measured human plasma renin and dog plasma renin; from tissue; host or cells: human plasma
T2 sequence (P00797 67-406): T1 sequence (P00797 67-406)
Kind of data set: Inhibition of human plasma renin. Type of data set: biochemical. On the procedure:
as §2

For a further data set, the target named is T3, dog plasma renin (Canis lupus familiaris, UniProt Q6DYE7).
T3 construct: Further assays measured human plasma renin and dog plasma renin; from tissue; host or cells: dog plasma
T3 sequence (Q6DYE7 66-403): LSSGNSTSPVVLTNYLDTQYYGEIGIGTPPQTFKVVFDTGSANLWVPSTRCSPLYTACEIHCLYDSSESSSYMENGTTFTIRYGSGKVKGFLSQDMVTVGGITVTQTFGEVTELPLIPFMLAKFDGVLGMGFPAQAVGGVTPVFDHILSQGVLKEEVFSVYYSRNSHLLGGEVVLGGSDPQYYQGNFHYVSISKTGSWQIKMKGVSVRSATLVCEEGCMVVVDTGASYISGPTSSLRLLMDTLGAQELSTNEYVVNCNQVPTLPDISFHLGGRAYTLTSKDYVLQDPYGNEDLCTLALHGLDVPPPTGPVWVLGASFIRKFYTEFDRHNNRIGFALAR
Kind of data set: Inhibition of dog plasma renin. The conditions noted are these: for Dog Plasma, % inhibition at 1000: at 1000 .eta.M. Type of data set: biochemical. On the procedure: as §2

The mark [2] stands for this setting: pH 7.4, aqueous buffer, pH 7.4 Buffer mg/ml (solubility).
Setting [3] is: water, H2O, read-out: H2O mg/ml (solubility).

Converted amounts (≈) assume the structure as drawn. Where two headings read alike, the source gives them in different places. *1 amine or outer side, *2 acyl side, *3 side chain or, on linkers, in order; H or OH if unused. Where a SMILES comes first, the peptide text is derived from it. [ ]: non-standard residue; d: D form. The star is where a group is joined. ξ: configuration not given here. NH(3-guanidinomethylbenzyl) = NC(N)=NCc1cccc(CN*)c1; NH(3-OCH2COOH-benzyl) = O=C(O)COc1cccc(CN*)c1; X1 = NCc1cccc(CC(N[*:1])C(=O)[*:2])c1; Sta = CC(C)C[C@H](N)[C@@H](O)CC(=O)O; NHCH2CH2SO3H = O=S(=O)(O)CCN*; X4 = NC(Cc1cccc(CN*)c1)C(=O)O; X3 = [O-][n+]1ccc(CN*)cc1; ξPhg = NC(C(=O)O)c1ccccc1; Boc = CC(C)(C)OC(=O)*; X2 = NC(CN*)c1ccccn1 Some results are limits rather than exact numbers.

On to `CC(C)C[C@H](NC(=O)C[C@H](O)[C@H](CC(C)C)NC(=O)[C@H](Cc1c[nH]cn1)NC(=O)[C@H](Cc1ccccc1)NC(=O)OC(C)(C)C)C(=O)NCC(N)c1ccccn1` (stereo partly drawn) [Example 2] (Boc-FH[Sta]L-X2), for which the solubility in data set [1] (setting [2]) was 0.32 mg/mL (≈ 404 µM); in data set [1] (water, H2O mg/ml (solubility)) it was 0.71 mg/mL (≈ 896 µM). Further, the “Partition Coefficient” value in the data set “Partition coefficient” is “infinity”.

Turning to pepstatin, in the data set with nephrectomized rats, the “blood pressure in vivo” value was “reduce blood pressure”.

In the case of `CC(C)C[C@H](NC(=O)C[C@H](O)[C@H](CC(C)C)NC(=O)[C@H](Cc1c[nH]cn1)NC(=O)[C@H](Cc1ccccc1)NC(=O)OC(C)(C)C)C(=O)NC(Cc1cccc(CN)c1)C(=O)O` (stereo partly shown) [Example 4] (Boc-FH[Sta]L[X1]-OH), the solubility stood at 1.3 mg/mL (≈ 1530 µM) in data set [1] (setting [2]) and 0.33 mg/mL (≈ 389 µM) in data set [1] (water, H2O mg/ml (solubility)). In addition, the “Partition Coefficient” value in “Partition coefficient” was found to be 68.2. Further, the Ki on human kidney renin worked out at 0.0049 µM.

With `CC(C)C[C@H](NC(=O)C[C@H](O)[C@H](CC(C)C)NC(=O)[C@H](Cc1c[nH]cn1)NC(=O)[C@H](Cc1ccccc1)NC(=O)OC(C)(C)C)C(=O)NCc1cccc(CN=C(N)N)c1` [Example 3] (Boc-FH[Sta]L-{NH(3-guanidinomethylbenzyl)}), the solubility in data set [1] (setting [2]) was 0.77 mg/mL (≈ 924 µM); in data set [1] (water, H2O mg/ml (solubility)), 2.46 mg/mL (≈ 2950 µM). Moreover, in the data set “Partition coefficient”, the “Partition Coefficient” value amounted to 10.6.

On human kidney renin, `CC(C)C[C@H](NC(=O)C[C@H](O)[C@H](CC(C)C)NC(=O)[C@H](Cc1c[nH]cn1)NC(=O)[C@H](Cc1ccccc1)NC(=O)OC(C)(C)C)C(=O)NCc1cccc(CC(N)C(=O)O)c1` (stereo partly drawn) [Example 6] (Boc-FH[Sta]L-X4) showed a Ki of 0.012 µM. For the same compound, the “Human Plasma, % inhibition at (concentration not given)” value on human plasma renin is 15%. At dog plasma renin (read-out: Dog Plasma I50), the IC50 stood at 0.12 µM.

Turning to `CC(C)C[C@H](NC(=O)C[C@H](O)[C@H](CC(C)C)NC(=O)[C@H](Cc1c[nH]cn1)NC(=O)[C@H](Cc1ccccc1)NC(=O)OC(C)(C)C)C(=O)NC(C(=O)O)c1ccccc1` (stereo partly shown) [Example 8] (Boc-FH[Sta]L[ξPhg]-OH), the solubility in data set [1] (pH 7.4 buffer, pH 7.4, aqueous buffer, pH 7.4 buffer, read-out: pH 7.4 Buffer mg/ml (solubility)) was 1.8 mg/mL (≈ 2230 µM); in data set [1] (setting [3]) it was 0.6 mg/mL (≈ 744 µM). Also, in “Partition coefficient”, the “Partition Coefficient” value is 16.5. The affinity on human kidney renin corresponds to a Ki of 0.99 µM. The “Human Plasma, % inhibition at (concentration not given)” value on human plasma renin was determined as 44%. In addition, the “Dog Plasma, % inhibition at 1000” value at dog plasma renin was 45%.

As for `CC(C)C[C@H](NC(=O)C[C@H](O)[C@H](CC(C)C)NC(=O)[C@H](Cc1c[nH]cn1)NC(=O)[C@H](Cc1ccccc1)NC(=O)OC(C)(C)C)C(=O)NCc1cc[n+]([O-])cc1` [Example 7] (Boc-FH[Sta]L-X3), the solubility in data set [1] (setting [2]) came out at 3.3 mg/mL (≈ 4240 µM); in data set [1] (water, H2O mg/ml (solubility)), 5.1 mg/mL (≈ 6550 µM).

For the compound `CC(C)C[C@H](NC(=O)C[C@H](O)[C@H](CC(C)C)NC(=O)[C@H](Cc1c[nH]cn1)NC(=O)[C@H](Cc1ccccc1)NC(=O)OC(C)(C)C)C(=O)NCCC(N)C(=O)O` (single isomer, unassigned) [Example 5 (Isomer A)], the solubility in data set [1] (setting [3]) was 1.72 mg/mL (≈ 2230 µM). Further, the “Partition Coefficient” value in the data set “Partition coefficient” stood at 2.1. This compound also showed a Ki at human kidney renin of 0.0024 µM. For the same compound, the “Human Plasma, % inhibition at 1000” value at human plasma renin (at 1000 .eta.M) is 25%. Besides, at dog plasma renin (listed as 5 A), the “Dog Plasma, % inhibition at 1000” value came to 15%.

As to `CC(C)C[C@H](NC(=O)C[C@H](O)[C@H](CC(C)C)NC(=O)[C@H](Cc1c[nH]cn1)NC(=O)[C@H](Cc1ccccc1)NC(=O)OC(C)(C)C)C(=O)NCCC(N)C(=O)O` (single isomer, unassigned) [Example 5 (Isomer B)], the “Partition Coefficient” value in “Partition coefficient” came to 10.7. Also, the affinity on human kidney renin, expressed as Ki, was 2.2 µM. The “Human Plasma, % inhibition at (concentration not given)” value on human plasma renin amounted to 0%. Also, the “Dog Plasma, % inhibition at 1000” value at dog plasma renin (listed as 5 B) was 22%.

For `CC(C)C[C@H](NC(=O)C[C@H](O)[C@H](CC(C)C)NC(=O)[C@H](Cc1c[nH]cn1)NC(=O)[C@H](Cc1ccccc1)NC(=O)OC(C)(C)C)C(=O)NCc1cccc(OCC(=O)O)c1` [Example 9] (Boc-FH[Sta]L-{NH(3-OCH2COOH-benzyl)}), the solubility in data set [1] (setting [2]) was 1.5 mg/mL (≈ 1790 µM); in data set [1] (water, H2O mg/ml (solubility)), 0.23 mg/mL (≈ 275 µM). Further, the “Partition Coefficient” value in the data set “Partition coefficient” is “infinity”.

Regarding `CC(C)C[C@H](NC(=O)C[C@H](O)[C@H](CC(C)C)NC(=O)[C@H](Cc1c[nH]cn1)NC(=O)[C@H](Cc1ccccc1)NC(=O)OC(C)(C)C)C(=O)NCCS(=O)(=O)O` [Example 10] (Boc-FH[Sta]L-NHCH2CH2SO3H), the solubility in data set [1] (setting [2]) is more than 9 mg/mL; in data set [1] (water, H2O mg/ml (solubility)) it was more than 9 mg/mL. The “Partition Coefficient” value in the data set “Partition coefficient” amounted to 4.34.

One may read the Ki as a dissociation constant, usually derived from enzyme kinetics or from competition with a known ligand.
